Tested on: mammary gland (tubulo-alveolar gland end pieces)
Assay: Antiproliferative potency of progesterone antagonists on the mammary gland, bioassay in ovariectomized rats (whole mount, inguinal mammary gland)
Assay type: in vivo, rat
Settings: 3 days, estrone 10 micrograms + progesterone 3 mg, antagonist 1 mg/animal/day, relative to G = 100%
Procedure: The antiproliterative potency of progesterone antagonists on the mammary gland was determined in a bioassay. For this purpose, ovariectomized rats were substituted for 3 days with estrone (10 micrograms) and progesterone (3 mg) and another group at the same time was treated with the following progesterone antagonists (1 mg/animal/day):
The entire inguinal mammary gland was dissected by performance of the "whole mount" technique (Lyons and Johnson, 1952). Of six animals, the number of tubulo-alveolar gland end pieces is determined by 40 times magnification.
The antiproliterative potency is expressed in percent of the inhibition of the tubulo-alveolar end pieces corresponding to the following formula:
(estrone (E)+progesterone (P))-(E+P+G)=100% of treated animals
(E+P)-(test compound H or I)=X%

Row | SMILES | % inhibition of the tubulo-alveolar end pieces
1 | CN(C)c1ccc([C@H]2C[C@@]3(C)[C@H](CC[C@]34CCCO4)[C@@H]3CCC4=CC(=O)CCC4=C32)cc1 [I, 11beta-(4-dimethylaminophenyl)-4,5-dihydro-spiro[14beta-estra-4,9-diene-17alpha,2'(3'H)-furan]-3-one] | 13%
2 | C[C@]12C[C@H](c3ccc(-c4cccnc4)cc3)C3=C4CCC(=O)C=C4CC[C@H]3[C@H]1CC[C@]2(O)CCCO [H, 11beta-[4-(3-pyridyl)phenyl]-17alpha-hydroxy-17-(3-hydroxypropyl)-14beta-estra-4,9-dien-3-one] | 92%
3 | CC#C[C@]1(O)CC[C@H]2[C@@H]3CCC4=CC(=O)CCC4=C3[C@@H](c3ccc(C(C)=O)cc3)C[C@@]21C [G, 11beta-(4-acetylphenyl)-17beta-hydroxy-17alpha-(1-propinyl)-4,9-estradien-3-one] | 100%

Tested on: Antiglucocorticoid effectiveness
Assay: Antiglucocorticoid effectiveness in % of RU 486
Settings: RU 486 effectiveness = 100%
Description: Antiglucocorticoid effectiveness of compounds A to G;
the effectiveness is indicated in % of th

Row | SMILES | Antiglucocorticoid effectiveness (in % of RU 486)
4 | C#CC[C@@]1(O)CC[C@@H]2[C@@H]3CCC4=CC(=O)CCC4=C3[C@@H](c3ccc(C(C)=O)cc3)C[C@@]21C [B, 11beta-(4-acetylphenyl)-17alpha-hydroxy-17-(prop-2-inyl)-14beta-estra-4,9-dien-3-one] | 1%
5 | CC#C[C@@]1(O)CC[C@@H]2[C@@H]3CCC4=CC(=O)CCC4=C3[C@@H](c3ccc(C(C)=O)cc3)C[C@@]21C [A, 11beta-(4-acetylphenyl)-17alpha-hydroxy-17-(prop-1-inyl)-14beta-estra-4,9-dien-3-one] | 1%
6 | C[C@]12C[C@@H]3c4ccc(-c5cccnc5)cc4C[C@]45CCC(=O)C=C4CC[C@H]([C@H]35)[C@H]1CC[C@]2(O)CCCO [D, 17-hydroxy-17beta-(3-hydroxypropyl)-11beta,19-(4-(3-pyridyl)-o-phenylene]-14beta-androst-4-en-3-one] | 0%
7 | COc1ccc2c(c1)C[C@]13CCC(=O)C=C1CC[C@@H]1[C@@H]3[C@@H]2C[C@@]2(C)[C@@H]1CC[C@]2(O)CCCO [C, 17-hydroxy-17beta-(3-hydroxypropyl)-11beta,19-(4-methoxy-o-phenylene)-14beta-androst-4-en-3-one] | 0%
8 | C=Cc1ccc2c(c1)C[C@]13CCC(=O)C=C1CC[C@@H]1[C@@H]3[C@@H]2C[C@@]2(C)[C@@H]1CC[C@]2(O)CCCO [E, 17-hydroxy-17beta-(3-hydroxypropyl)-11beta,19-(4-vinyl-o-phenylene)-14beta-androst-4-en-3-one] | 1%
9 | CN(C)c1ccc([C@H]2C[C@@]3(C)[C@H](CC[C@]3(O)CCCO)[C@@H]3CCC4=CC(=O)CCC4=C32)cc1 [F, 11beta-(4-dimethylaminophenyl)-17alpha-hydroxy-17-(3-hydroxypropyl)-14beta-estra-4,9-dien-3-one, reference compound] | 2%
